Assay results published in PMC9280689, “Resistance to Powdery Mildew in Qingke Involves the Accumulation of Aromatic Phenolamides Through Jasmonate-Mediated Activation of Defense-Related Genes” (Frontiers in Plant Science, 2022).

Target: T1, HvTBT2 (Hordeum vulgare, UniProt A0A8I6X4Z6)
T1 construct: gene LOC123447140; full-length cDNA in pGEX-6p-1, GST fusion, E. coli BL21(DE3), purified
Test: LC-MS product assay
Format: biochemical
Details: acyl donor; amine acceptor 100 μM (which amine not told); 10 mM MgCl2, Tris-HCl pH 7.4, 30 °C
From the text: LC-MS product assay on HvTBT2

T1 sequence (A0A8I6X4Z6 entry or part of it): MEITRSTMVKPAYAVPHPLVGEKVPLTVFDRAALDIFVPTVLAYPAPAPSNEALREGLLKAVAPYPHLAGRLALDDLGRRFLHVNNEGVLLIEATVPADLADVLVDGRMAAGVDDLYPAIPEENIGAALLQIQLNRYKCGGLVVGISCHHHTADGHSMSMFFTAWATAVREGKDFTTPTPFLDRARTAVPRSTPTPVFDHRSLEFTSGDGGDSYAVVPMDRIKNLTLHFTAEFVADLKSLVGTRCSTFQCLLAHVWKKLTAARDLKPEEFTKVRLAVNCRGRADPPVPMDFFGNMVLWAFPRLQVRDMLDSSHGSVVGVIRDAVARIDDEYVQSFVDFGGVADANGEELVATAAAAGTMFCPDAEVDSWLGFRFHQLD

Km: 382 ± 98.3 µM
Structure (SMILES): COc1cc(/C=C/C(=O)SCCNC(=O)CCNC(=O)[C@H](O)C(C)(C)COP(=O)(O)OP(=O)(O)OC[C@H]2O[C@@H](n3cnc4c(N)ncnc43)[C@H](O)[C@@H]2OP(=O)(O)O)ccc1O [Feruloyl-CoA]
